Literature values in patent publication US20180117047A1, “DRUG FOR PREVENTING AND/OR TREATING DEMENTIA” (NATIONAL UNIVERSITY CORPORATION TOTTORI UNIVERSITY, priority 2015, published 2018).
Like-named read-outs stand apart in the source and are kept apart here.

Tested on: F11 cell strain, fusion cells of rat primarily cultured nerve cells and mouse neuroblastomas, expressing N141I mutant of presenilin 2
Conditions: cited from earlier work

| Structure (SMILES) | Nerve cell death caused by addition of ecdysone (100 nM xanthine oxidase inhibitor simultaneously with 100 μM acetyl-L-aspartyl-L-glutamyl-L-valyl-L-aspart-1-al (caspase inhibitor)) | Nerve cell death caused by addition of ecdysone (100 μM oxypurinol simultaneously with 100 μM acetyl-L-aspartyl-L-glutamyl-L-valyl-L-aspart-1-al (caspase inhibitor)) | Nerve cell death caused by addition of ecdysone (100 μM oxypurinol simultaneously with 300 μM apocynin (NADPH oxidase inhibitor)) |
| --- | --- | --- | --- |
| COc1cc(-c2cnn3c(O)ncnc23)ccc1[S+]([O-])c1ccccc1.[Na] (single isomer, unassigned; (-)) [(−)-4-hydroxy-8-(3-methoxy-4-phenylsulfinylphenyl)pyrazolo[1,5-a]-1,3,5-triazine sodium salt] | suppressed |  |  |
| O=c1[nH]c(=O)c2c[nH]nc2[nH]1 [oxypurinol] |  | suppressed | suppressed |
